Assays:
[1] = system: Sult in FVB mouse liver S9 fraction; assay: Sult activity measurements; assay type: in vitro ADME
[2] = Chemical stability of the tested compounds in potassium phosphate buffer; assay type: physicochemical; conditions: 50 mM potassium phosphate buffer (pH 7.4) at 37°C with 0.1% vitamin C
[3] = system: Ugt in FVB mouse liver S9 fraction; conditions: male, 10 µM, pH 7.4
Sult = Sult activity measurements; assay type: in vitro ADME, mouse; conditions: male, FVB, mouse, liver S9 fraction, pH 7.4
Sult and Ugt = assay: Sult-Ugt co-reaction system; assay type: in vitro ADME; conditions: male, FVB, mouse, liver S9 fraction
Ugt = Ugt activity measurements; conditions: male, FVB, mouse, liver S9 fraction, pH 7.4
[4] = system: SULTs in human liver and duodenum S9 fractions; conditions: cited from earlier work
[5] = 10 µM substrate, Sult single reaction, FVB mice liver S9 fraction, n=3

time stable in buffer (chemical stability) [2] [min]	SMILES	sulfation rate [1, 5]	other results
30 to 90	O=c1cc(-c2cccc(O)c2)oc2ccccc12 [3’-HF, 3’-hydroxyflavone]	0.0312 ± 0.0095 nmol per min per mg of protein	–
30 to 90	O=c1cc(-c2ccc(O)cc2)oc2ccccc12 [4’-HF, 4’-hydroxyflavone]	0.0793 ± 0.0031 nmol per min per mg of protein	–
30 to 90	O=c1cc(-c2ccccc2)oc2ccc(O)cc12 [6-HF, 6-hydroxyflavone]	0.0211 ± 0.0002 nmol per min per mg of protein	–

The next lines start with the molecule.

SMILES	time stable in buffer (chemical stability) [2] [min]	sulfation rate [1, 5]	other results
O=c1cc(-c2ccccc2O)oc2ccccc12 [2’-HF, 2’-hydroxyflavone]	30 to 90	0.0719 ± 0.0030 nmol per min per mg of protein	–
O=c1c(O)c(-c2ccc(O)cc2)oc2ccccc12 [3,4’-diHF, 3,4’-dihydroxyflavone]	30 to 90	–	–
O=c1c(O)c(-c2ccccc2)oc2ccccc12 [3-HF, 3-hydroxyflavone]	30 to 90	0.00 ± 0.00 nmol per min per mg of protein	sulfation by FVB mice liver S9 fraction (in words) ([1]; 5, 10 and 40 µM substrate, Sult single reaction): not sulfated
O=c1cc(-c2ccccc2)oc2cc(O)cc(O)c12 [5,7-diHF, 5,7-dihydroxyflavone]	–	–	formation rate of 7-O-sulfate ([1]; male, FVB, mouse, 5 µM, pH 7.4): 0.0387 ± 0.0025 nmol per min per mg of protein; glucuronidation rate, 5-O-G [3]: 0.00 ± 0.00 nmol per min per mg of protein; glucuronidation rate, 7-O-G [3]: 1.0763 ± 0.0399 nmol per min per mg of protein
O=c1cc(-c2ccccc2)oc2cccc(O)c12 [5-HF, 5-hydroxyflavone]	–	–	sulfation rate ([1]; male, FVB, mouse, 10 µM, pH 7.4): 0.0524 ± 0.0019 nmol per min per mg of protein
O=c1cc(-c2ccccc2)oc2cc(O)c(O)cc12 [6,7-diHF, 6,7-dihydroxyflavone]	–	–	half-life at 10 µM (Sult): 244 ± 36.8 min; half-life at 10 µM (Sult and Ugt): 21.2 ± 2.03 min; half-life at 10 µM (Ugt): 26.8 ± 1.32 min
O=c1cc(-c2ccccc2)oc2cc(O)ccc12 [7-HF, 7-hydroxyflavone]	30 to 90	0.0998 ± 0.0061 nmol per min per mg of protein	sulfation by SULTs (in words) [4]: sulfated
